From patent US20240270821A1, “GIP/GLP1/GCG TRI-RECEPTOR AGONISTS AND USES THEREOF” (priority 2023, published 2024)
Like-named read-outs stand apart in the source and are kept apart here. Starred links: 1 amine or outer side, 2 acyl side, 3 side chain; linkers in the order of their positions; H or OH if unused. Non-standard residues stand in square brackets, D forms with d. Groups on a side chain read outwards from the residue. *: point of attachment. C18 diacid = O=C(O)CCCCCCCCCCCCCCCCC(=O)*; αMePhe(2-F) = C[C@](N)(Cc1ccccc1F)C(=O)O; γGlu = O=C(O)[C@H](CCC(=O)[*:2])N[*:1]; αMe4Pal = C[C@](N)(Cc1ccncc1)C(=O)O; αMeY = C[C@](N)(Cc1ccc(O)cc1)C(=O)O; 4Pal = N[C@@H](Cc1ccncc1)C(=O)O; αMeL = CC(C)C[C@](C)(N)C(=O)O; αMeS = C[C@](N)(CO)C(=O)O; Orn = NCCC[C@H](N)C(=O)O; Aib = CC(C)(N)C(=O)O

Key:
[1] = target: T1, hGIPR (Homo sapiens, UniProt P48546); assay: Functional cAMP activity in the presence of 1% HSA; format: cell-based; conditions: read-out: cAMP Rel EC50, hGIPR
T1 sequence (P48546 22-466): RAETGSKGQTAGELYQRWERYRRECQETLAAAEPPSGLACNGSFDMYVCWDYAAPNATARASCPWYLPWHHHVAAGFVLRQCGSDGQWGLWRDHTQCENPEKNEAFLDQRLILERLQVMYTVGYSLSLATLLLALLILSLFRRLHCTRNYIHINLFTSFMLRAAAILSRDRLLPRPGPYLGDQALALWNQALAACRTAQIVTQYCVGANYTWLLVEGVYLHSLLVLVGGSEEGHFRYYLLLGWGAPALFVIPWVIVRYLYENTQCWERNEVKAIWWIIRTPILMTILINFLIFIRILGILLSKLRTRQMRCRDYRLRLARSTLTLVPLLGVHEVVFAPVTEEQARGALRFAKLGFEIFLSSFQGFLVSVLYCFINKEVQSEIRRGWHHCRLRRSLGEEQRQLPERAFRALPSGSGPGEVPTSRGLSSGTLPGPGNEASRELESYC

[2] = target: T2, hGLP-1R (Homo sapiens, UniProt P43220); assay: Functional cAMP activity in the presence of 1% HSA; format: cell-based; conditions: read-out: cAMP Rel EC50, hGLP-1R
T2 sequence (P43220 24-463): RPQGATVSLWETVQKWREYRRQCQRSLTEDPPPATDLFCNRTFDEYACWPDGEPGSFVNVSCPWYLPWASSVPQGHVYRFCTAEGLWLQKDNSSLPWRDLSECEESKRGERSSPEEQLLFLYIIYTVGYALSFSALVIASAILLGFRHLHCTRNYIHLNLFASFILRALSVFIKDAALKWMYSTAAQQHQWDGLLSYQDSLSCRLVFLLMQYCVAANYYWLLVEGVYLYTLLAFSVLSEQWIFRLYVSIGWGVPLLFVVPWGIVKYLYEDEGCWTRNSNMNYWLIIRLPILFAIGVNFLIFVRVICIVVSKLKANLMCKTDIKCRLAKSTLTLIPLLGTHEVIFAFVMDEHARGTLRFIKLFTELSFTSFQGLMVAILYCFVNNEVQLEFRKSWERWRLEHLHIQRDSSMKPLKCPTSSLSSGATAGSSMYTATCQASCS

[3] = target: human GcgR (Homo sapiens, UniProt P47871); assay: Functional cAMP activity in the presence of 1% HSA; format: cell-based; conditions: read-out: cAMP Rel EC50, hGcgR
Chain of human GcgR (P47871 26-477): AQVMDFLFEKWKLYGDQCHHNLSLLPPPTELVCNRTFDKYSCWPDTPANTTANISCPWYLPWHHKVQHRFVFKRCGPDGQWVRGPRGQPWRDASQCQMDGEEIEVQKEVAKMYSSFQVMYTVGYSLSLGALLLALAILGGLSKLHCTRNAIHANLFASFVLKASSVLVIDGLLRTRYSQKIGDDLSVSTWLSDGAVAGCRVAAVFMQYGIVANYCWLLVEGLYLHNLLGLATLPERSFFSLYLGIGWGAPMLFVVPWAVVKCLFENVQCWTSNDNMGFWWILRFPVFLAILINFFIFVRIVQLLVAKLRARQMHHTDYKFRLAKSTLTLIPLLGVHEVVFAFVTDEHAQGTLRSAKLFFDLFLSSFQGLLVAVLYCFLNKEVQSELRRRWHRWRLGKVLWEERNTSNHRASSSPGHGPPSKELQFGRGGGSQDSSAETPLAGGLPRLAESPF

[4] = target: T1, hGIPR; assay: Functional cAMP activation in the presence of 0.1% casein (no HSA); format: cell-based; conditions: read-out: Relative cAMP EC50, hGIPR;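 for Relative cAMP EC50, hGIPR: intracellular cAMP rise after 30 min at 37 °C read by HTRF against a standard curve, scaled between buffer alone (0%) and top control ligand concentration (100%), four-parameter fit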;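 for Relative cAMP EC50, hGLP-1R: intracellular cAMP rise after 30 min at 37 °C read by HTRF, normalized between buffer only (0%) and maximal control ligand (100%), four-parameter variable-slope fit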;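 for Relative cAMP EC50, hGcgR: intracellular cAMP rise after 30 min at 37 °C, read by HTRF against a cAMP standard curve, scaled from buffer only (0%) to maximal control ligand response (100%)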
[5] = target: T2, hGLP-1R; assay: as above; format: cell-based; conditions: read-out: Relative cAMP EC50, hGLP-1R
[6] = target: hGcgR (Homo sapiens, UniProt P47871); assay: as above; format: cell-based; conditions: read-out: Relative cAMP EC50, hGcgR;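 note: intracellular cAMP rise after 30 min at 37 °C, read by HTRF against a cAMP standard curve, scaled from buffer only (0%) to maximal control ligand response (100%)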
Chain of hGcgR (P47871 26-477): as above

[7] = Body weight in diet-induced obese C57BL/6 mice; format: in vivo; conditions: 10 nmol/kg SC QD, 7 days, percent of starting weight, DIO mice, mean ± SEM n=5
Method in brief: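 Daily weighing gave body weight as percent of starting value (mean±SEM, n=5) over 9-16 days of SC dosing, once daily or every 3 days, shortly before lights-off. Animals were weight-randomized male C57BL/6 DIO mice, 41-50 g, fed ad libitum on a calorie-rich diet.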

[8] = system: Intestinal organoid from Göttingen minipig jejunum tissue, 2D monolayer; assay: Cell based in vitro permeability (Papp) assay; format: in vitro ADME
Method in brief: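 Papp calculated from LC/MS peptide levels in apical and basal compartments. Basal sampling at 20 min with C10 present, across monolayers grown from dissociated minipig jejunal organoids in transwells.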

[9] = Pepsin stability assay in simulated gastric fluid; format: in vitro ADME; conditions: pH 1.2, % Intact (SD)
Experimental: A pepsin stability assay is utilized to determine the relative stability of Example polypeptides in a simulated gastric proteolytic environment. […] The relative amount of intact peptide is quantified by mass spectrometry (MS). […] The examples were dissolved in 50 mM Tris buffer pH 8.0 at a concentration of 10 mg/mL as a stock solution. Pepsin A was reconstituted in SGF at 10 mg/mL. […] The example peptide and pepsin solutions were then incubated at 37° C. in a shaking incubator set at 100 rpm. Samples (25 μL) were withdrawn at different time intervals and quenched with 100 mM ammonium bicarbonate pH 9 (50 μL) to stop proteolytic activity. All samples were centrifuged, and the supernatants were analyzed by LC/MS to determine the remaining intact peptide.

[10] = in vivo; set-up: species or system cynomolgus monkeys; conditions: both sexes, cynomolgus monkey, iv, 10 nmol/kg
Experimental: (§1) A study is designed to evaluate the oral bioavailability of Example polypeptides in cynomolgus monkeys. […] Standards and controls are prepared in cynomolgus monkey plasma, and any dilutions required to bring samples into the quantitative range are also performed in control cynomolgus monkey plasma. To control assay variability, an internal standard (IS) is added to all the standards and samples. The Examples and IS are extracted from 100% monkey plasma (50 μL) by protein precipitation using isopropyl alcohol and methanol (50:50 v/v). The samples are then centrifuged (3000 rpm for 10 minutes) and the supernatant is transferred to a Siricco Protein Precipitation Plate. The samples are loaded on a Sep-Pak tC18 SPE microelution plate that is conditioned with 2% formic acid in acetonitrile and water. The compounds are then washed with 2% formic acid in water and eluted using 2% formic acid in acetonitrile into a plate containing 5× Invitrosol and 1% formic acid in water prior to injecting an aliquot (10 μL) on to Xselect CSH C18, 3.5 μm, 2.1×20 mm for LC/MS analysis.
Blood samples are collected over 504 hours. Plasma is harvested from blood samples by centrifugation and stored frozen (−70° C.) until analysis. Plasma concentrations of the molecules are detected using the bioanalytical method described above.

[11] = in vivo; set-up: species or system cynomolgus monkeys; conditions: both sexes, cynomolgus monkey, po; for bioavailability: 10 mg; for AUC(0-inf) / CL/F / Cmax / Tmax / half-life: 300 mg
Experimental: as §1
[…] Blood samples are collected up to 504 hours post-dose. Plasma is harvested from blood samples by centrifugation and stored frozen (−70° C.) until analysis. Plasma concentrations of the molecules are detected using the bioanalytical method described above.

[12] = target: human GLP1-R (Homo sapiens, UniProt P43220); assay: GLP1-R internalization assay in HEK293 cells; format: cell-based; conditions: for EC50: HEK293 cells expressing SNAP-GLP-1R, read-out: GLP1R Internalization EC50; for Internalization % TOP: normalized to maximum concentration of GLP-1 (100%)
Chain of human GLP1-R (P43220 24-463): as the sequence (P43220 24-463) above

[13] = in the presence of 0.1% casein (no HSA), geometric mean

AUC(0-inf) [10] | clearance [10] | half-life [10] | bioavailability [11] | AUC(0-inf) [11] | CL/F [11] | Cmax [11] | Tmax [11] | half-life [11] | Compound | EC50 [1] | EC50 [2] | EC50 [3] | EC50 [4] | EC50 [5] | EC50 [6] | Relative Papp (Compared to internal standard) [8] | remaining at 0.25 h, 0.4 mg/mL [9] | remaining at 0.5 h, 0.4 mg/mL [9] | EC50 [12] | Internalization % TOP [12] | other results
– | – | – | – | – | – | – | – | – | CC[C@H](C)[C@H](NC(=O)[C@H](CC(C)C)NC(=O)[C@](C)(Cc1ccc(O)cc1)NC(=O)[C@@H](CCC(=O)O)NC(=O)[C@@H](NC(=O)[C@H](Cc1ccccc1)NC(=O)[C@H](CCC(=O)O)NC(=O)[C@](C)(Cc1ccncc1)NC(=O)[C@H](CCC(N)=O)NC(=O)[C@H](C)NC(=O)[C@H](CCCCNC(=O)CC[C@H](NC(=O)CC[C@H](NC(=O)CCCCCCCCCCCCCCCCC(=O)O)C(=O)O)C(=O)O)NC(=O)[C@H](CCCN)NC(=O)[C@H](CC(=O)O)NC(=O)[C@H](CC(C)C)NC(=O)[C@](C)(CC(C)C)NC(=O)[C@@H](NC(=O)[C@](C)(CO)NC(=O)[C@H](Cc1ccncc1)NC(=O)[C@H](CC(=O)O)NC(=O)[C@H](CO)NC(=O)[C@@H](NC(=O)[C@](C)(Cc1ccccc1F)NC(=O)[C@@H](NC(=O)CNC(=O)[C@H](CCC(N)=O)NC(=O)C(C)(C)NC(=O)[C@@H](N)Cc1ccc(O)cc1)[C@@H](C)O)[C@@H](C)O)[C@@H](C)CC)[C@@H](C)CC)C(=O)N[C@@H](CCC(=O)O)C(=O)NCC(=O)NCC(=O)N1CCC[C@H]1C(=O)N[C@@H](CO)C(=O)N[C@@H](CO)C(=O)NCC(=O)N[C@@H](C)C(=O)N1CCC[C@H]1C(=O)N1CCC[C@H]1C(=O)N1CCC[C@H]1C(=O)N[C@@H](CO)C(=O)NCC(=O)N[C@@H](CO)C(N)=O [Example 700] | 0.397 nM | 20 nM | 132 nM | 0.00758 nM | 0.245 nM | 1.31 nM | 0.29 | 89.9% | 106% | – | – | Body weight (%) [7]: 75.9 ± 3.77 %; remaining at 1 h, 0.4 mg/mL [9]: 98.9%
10.5 ± 1.58 µM·h | 0.0162 mL/min/kg | 53.2 ± 0.603 h | 0.6% | 3.58 µM·h | 2.7 mL/min/kg | 75.7 nM | 1.5 h | 45 h | H-Y[Aib]QGT[αMePhe(2-F)]TSD[4Pal][αMeS]ILLD[Orn]K([γGlu-γGlu-C18 diacid])AQ[Aib][Orn]FI[dE]YLIEGGPSSGEPPPSGTGE-NH2 [Example 548] | 3.48 nM | 38 nM | 295 nM | 0.0547 nM | 0.478 nM | 3.94 nM | – | – | – | 17.8 nM | 109% | –
– | – | – | – | – | – | – | – | – | H-Y[Aib]QGT[αMePhe(2-F)]TSD[4Pal][αMeS]I[αMeL]LD[Orn]K([γGlu-γGlu-C18 diacid])AQ[αMe4Pal]EFI[dE][αMeY]LVEGGPSSGAPPPSGS-NH2 [Example 696] | 0.53 nM | 19.1 nM | 173 nM | 0.00688 nM | 0.233 nM | 1.75 nM | 0.77 | 102% | 107% | – | – | –
8.57 ± 1.55 µM·h | 0.02 mL/min/kg | 76.4 ± 31.4 h | 1.2% | 5.07 µM·h | 2.77 mL/min/kg | 135 nM | 2.5 h | 55.7 h | H-Y[Aib]QGTFTSD[4Pal]SQ[αMeL]LD[Orn]K([γGlu-γGlu-C18 diacid])AQ[αMe4Pal]AFIE[αMeY]LIEGGPSSGEPPPSGSEE-NH2 [Example 1027] | 58.1 nM | 252 nM | 1470 nM | – | – | – | – | – | – | – | – | EC50 [4, 13]: 0.208 nM; EC50 [5, 13]: 1.23 nM; EC50 [6, 13]: 4.99 nM

Compound | AUC(0-inf) [10] | clearance [10] | half-life [10] | bioavailability [11] | AUC(0-inf) [11] | CL/F [11] | Cmax [11] | Tmax [11] | half-life [11] | EC50 [1] | EC50 [2] | EC50 [3] | EC50 [4] | EC50 [5] | EC50 [6] | Relative Papp (Compared to internal standard) [8] | remaining at 0.25 h, 0.4 mg/mL [9] | remaining at 0.5 h, 0.4 mg/mL [9] | EC50 [12] | Internalization % TOP [12] | other results
H-Y[Aib]QGT[αMePhe(2-F)]TSD[4Pal]SILLDKK([γGlu-γGlu-C18 diacid])AQ[Aib]AFIEYLEEGGPSSGAPPPSGTGE-NH2 [Example 510] | 14.5 ± 3.42 µM·h | 0.0119 mL/min/kg | 55.9 ± 13.2 h | 0.7% | 5.09 µM·h | 5.17 mL/min/kg | 126 nM | 2 h | 47 h | 6.4 nM | 74.2 nM | 564 nM | 0.0627 nM | 0.71 nM | 5.44 nM | – | – | – | 11.8 nM | 113% | –
